From ChEMBL document CHEMBL1275550, “In vitro activity of doripenem, a carbapenem for the treatment of challenging infections caused by gram-negative bacteria, against recent clinical isolates from the United States” (2008)
Values after ≈ are worked out from the molar mass of the structure shown.

What was measured:
Enterobacter cloacae [1] = assay: Antimicrobial activity against Enterobacter cloacae assessed as susceptible isolate by broth microdilution method; assay type: functional
Enterobacteriaceae [2] = assay: Antimicrobial activity against ceftazidime-susceptible Enterobacteriaceae assessed as resistant isolate by broth microdilution method; assay type: functional
Streptococcus pneumoniae = assay: Antimicrobial activity against penicillin-susceptible Streptococcus pneumoniae by broth microdilution method; assay type: functional; settings: Streptococcus pneumoniae
Enterobacteriaceae [3] = assay: Antimicrobial activity against ceftazidime-susceptible Enterobacteriaceae assessed as intermediate isolate by broth microdilution method; assay type: functional
Pseudomonas aeruginosa [4] = assay: Antimicrobial activity against Pseudomonas aeruginosa isolated from non-ICU patient assessed as resistant isolate by broth microdilution method
Acinetobacter [5] = assay: Antimicrobial activity against imipenem susceptible Acinetobacter by broth microdilution method; assay type: functional
Proteus mirabilis [6] = assay: Antimicrobial activity against ESBL producing Proteus mirabilis assessed as intermediate isolate by broth microdilution method; assay type: functional
Pseudomonas aeruginosa [7] = assay: Antimicrobial activity against Pseudomonas aeruginosa isolated from ICU patient assessed as intermediate isolate by broth microdilution method
Escherichia coli [8] = assay: Antimicrobial activity against ESBL producing Escherichia coli assessed as intermediate isolate by broth microdilution method; assay type: functional
Citrobacter [9] = assay: Antimicrobial activity against Citrobacter assessed as susceptible isolate by broth microdilution method; assay type: functional
Citrobacter [10] = assay: Antimicrobial activity against Citrobacter by broth microdilution method; assay type: functional
Serratia marcescens [11] = assay: Antimicrobial activity against Ceftazidime non-susceptible Serratia marcescens assessed as intermediate isolate by broth microdilution method; assay type: functional
Citrobacter [12] = assay: Antimicrobial activity against Citrobacter with nonderepressed AmpC beta-lactamsae assessed as susceptible isolate by broth microdilution method; assay type: functional
Enterobacter cloacae [13] = assay: Antimicrobial activity against Enterobacter cloacae with nonderepressed AmpC beta-lactamsae assessed as intermediate isolate by broth microdilution method; assay type: functional
Enterobacter cloacae [14] = assay: Antimicrobial activity against Enterobacter cloacae with derepressed AmpC beta-lactamsae assessed as susceptible isolate by broth microdilution method; assay type: functional
Enterobacteriaceae [15] = assay: Antimicrobial activity against Ceftazidime non-susceptible Enterobacteriaceae assessed as susceptible isolate by broth microdilution method; assay type: functional
Pseudomonas aeruginosa [16] = assay: Antimicrobial activity against imipenem non-susceptible Pseudomonas aeruginosa by broth microdilution method; assay type: functional
Escherichia coli [17] = assay: Antimicrobial activity against ESBL producing Escherichia coli by broth microdilution method; assay type: functional
Enterobacter cloacae [18] = assay: Antimicrobial activity against Enterobacter cloacae with derepressed AmpC beta-lactamsae by broth microdilution method; assay type: functional
Pseudomonas aeruginosa [19] = assay: Antimicrobial activity against Ceftazidime non-susceptible Pseudomonas aeruginosa by broth microdilution method; assay type: functional
Klebsiella pneumoniae [20] = assay: Antimicrobial activity against ESBL producing Klebsiella pneumoniae assessed as susceptible isolate by broth microdilution method; assay type: functional
Enterobacter cloacae [21] = assay: Antimicrobial activity against Enterobacter cloacae with nonderepressed AmpC beta-lactamsae assessed as susceptible isolate by broth microdilution method; assay type: functional
Enterobacter cloacae [22] = assay: Antimicrobial activity against Enterobacter cloacae with derepressed AmpC beta-lactamsae assessed as intermediate isolate by broth microdilution method; assay type: functional
Proteus mirabilis [23] = assay: Antimicrobial activity against Proteus mirabilis by broth microdilution method; assay type: functional
Enterobacteriaceae [24] = assay: Antimicrobial activity against ceftazidime-susceptible Enterobacteriaceae by broth microdilution method; assay type: functional
Pseudomonas aeruginosa [25] = assay: Antimicrobial activity against Pseudomonas aeruginosa isolated from non-ICU patient by broth microdilution method
Escherichia coli [26] = assay: Antimicrobial activity against Non-ESBL Escherichia coli assessed as intermediate isolate by broth microdilution method; assay type: functional
Pseudomonas aeruginosa [27] = assay: Antimicrobial activity against Pseudomonas aeruginosa isolated from ICU patient assessed as resistant isolate by broth microdilution method
Enterobacteriaceae [28] = assay: Antimicrobial activity against Enterobacteriaceae assessed as susceptible isolate by broth microdilution method; assay type: functional
Proteus mirabilis [29] = assay: Antimicrobial activity against Non-ESBL Proteus mirabilis assessed as intermediate isolate by broth microdilution method; assay type: functional
Proteus mirabilis [30] = assay: Antimicrobial activity against Non-ESBL Proteus mirabilis assessed as susceptible isolate by broth microdilution method; assay type: functional
Pseudomonas aeruginosa [31] = assay: Antimicrobial activity against Pseudomonas aeruginosa isolated from ICU patient by broth microdilution method; assay type: functional
Acinetobacter [32] = assay: Antimicrobial activity against imipenem non-susceptible Acinetobacter by broth microdilution method; assay type: functional
Klebsiella pneumoniae [33] = assay: Antimicrobial activity against Klebsiella pneumoniae by broth microdilution method; assay type: functional
Acinetobacter [34] = assay: Antimicrobial activity against imipenem non-susceptible Acinetobacter assessed as intermediate isolate by broth microdilution method; assay type: functional
Serratia marcescens [35] = assay: Antimicrobial activity against Serratia marcescens by broth microdilution method; assay type: functional
Pseudomonas aeruginosa [36] = assay: Antimicrobial activity against Ceftazidime susceptible Pseudomonas aeruginosa assessed as susceptible isolate by broth microdilution method; assay type: functional
Pseudomonas aeruginosa [37] = assay: Antimicrobial activity against Ceftazidime non-susceptible Pseudomonas aeruginosa assessed as susceptible isolate by broth microdilution method; assay type: functional
Acinetobacter [38] = assay: Antimicrobial activity against imipenem non-susceptible Acinetobacter assessed as resistant isolate by broth microdilution method; assay type: functional
Enterobacter cloacae [39] = assay: Antimicrobial activity against Enterobacter cloacae by broth microdilution method; assay type: functional
Pseudomonas aeruginosa [40] = assay: Antimicrobial activity against Ceftazidime non-susceptible Pseudomonas aeruginosa assessed as intermediate isolate by broth microdilution method; assay type: functional
Pseudomonas aeruginosa [41] = assay: Antimicrobial activity against Pseudomonas aeruginosa isolated from ICU patient assessed as susceptible isolate by broth microdilution method
Klebsiella pneumoniae [42] = assay: Antimicrobial activity against ESBL producing Klebsiella pneumoniae assessed as intermediate isolate by broth microdilution method; assay type: functional
Staphylococcus aureus = assay: Antimicrobial activity against methicillin-susceptible Staphylococcus aureus by broth microdilution method; assay type: functional
Acinetobacter [43] = assay: Antimicrobial activity against Acinetobacter by broth microdilution method; assay type: functional
Staphylococcus = assay: Antimicrobial activity against methicillin-susceptible coagulase-negative Staphylococcus by broth microdilution method; assay type: functional
Pseudomonas aeruginosa [44] = assay: Antimicrobial activity against Pseudomonas aeruginosa isolated from non-ICU patient by broth microdilution method; assay type: functional
Citrobacter [45] = assay: Antimicrobial activity against Citrobacter with derepressed AmpC beta-lactamsae assessed as susceptible isolate by broth microdilution method; assay type: functional
Proteus mirabilis [46] = assay: Antimicrobial activity against ESBL producing Proteus mirabilis by broth microdilution method; assay type: functional
Enterobacteriaceae [47] = assay: Antimicrobial activity against Enterobacteriaceae by broth microdilution method; assay type: functional
Pseudomonas aeruginosa [48] = assay: Antimicrobial activity against imipenem non-susceptible Pseudomonas aeruginosa assessed as susceptible isolate by broth microdilution method; assay type: functional
Pseudomonas aeruginosa [49] = assay: Antimicrobial activity against imipenem susceptible Pseudomonas aeruginosa assessed as susceptible isolate by broth microdilution method; assay type: functional

Question: Which Activity (Enterobacter cloacae [1]) does the source give for `C[C@@H](O)[C@H]1C(=O)N2C(C(=O)O)=C(S[C@@H]3CN[C@H](C(=O)N(C)C)C3)[C@H](C)[C@H]12` [MEROPENEM] here?
Answer: 99.6%

Question: And the Activity (Enterobacteriaceae [2])?
Answer: 0.1%

Question: What about the MIC50 (Streptococcus pneumoniae) of the same compound?
Answer: ≤ 0.015 µg/mL

Question: What about the Activity (Enterobacteriaceae [3]) of the same compound?
Answer: 0%

Question: And the Activity (Pseudomonas aeruginosa [4])?
Answer: 12.4%

Question: And the MIC50 (Acinetobacter [5])?
Answer: 1 µg/mL (≈ 2.61 µM)

Question: What about the MIC90 (Acinetobacter [5]) of the same compound?
Answer: 4 µg/mL (≈ 10.4 µM)

Question: And the Activity (Proteus mirabilis [6])?
Answer: 0%

Question: What about the Activity (Pseudomonas aeruginosa [7]) of the same compound?
Answer: 7.9%

Question: And the Activity (Escherichia coli [8])?
Answer: 0%

Question: And the Activity (Citrobacter [9])?
Answer: 100%

Question: And the MIC50 (Citrobacter [10])?
Answer: 0.06 µg/mL (≈ 0.156 µM)

Question: And the MIC90 (Citrobacter [10])?
Answer: 0.12 µg/mL (≈ 0.313 µM)

Question: And the Activity (Serratia marcescens [11])?
Answer: 0%

Question: And the Activity (Citrobacter [12])?
Answer: 100%

Question: What about the Activity (Enterobacter cloacae [13]) of the same compound?
Answer: 0.5%

Question: And the Activity (Enterobacter cloacae [14])?
Answer: 100%

Question: What about the Activity (Enterobacteriaceae [15]) of the same compound?
Answer: 98%

Question: And the MIC50 (Pseudomonas aeruginosa [16])?
Answer: 8 µg/mL (≈ 20.9 µM)

Question: And the MIC90 (Pseudomonas aeruginosa [16])?
Answer: 32 µg/mL (≈ 83.4 µM)

Question: And the MIC50 (Escherichia coli [17])?
Answer: 0.06 µg/mL (≈ 0.156 µM)

Question: And the MIC90 (Escherichia coli [17])?
Answer: 0.06 µg/mL (≈ 0.156 µM)

Question: And the MIC50 (Enterobacter cloacae [18])?
Answer: 0.25 µg/mL (≈ 0.652 µM)

Question: What about the MIC90 (Enterobacter cloacae [18]) of the same compound?
Answer: 0.5 µg/mL (≈ 1.3 µM)

Question: And the MIC50 (Pseudomonas aeruginosa [19])?
Answer: 4 µg/mL (≈ 10.4 µM)

Question: What about the MIC90 (Pseudomonas aeruginosa [19]) of the same compound?
Answer: 32 µg/mL (≈ 83.4 µM)

Question: And the Activity (Klebsiella pneumoniae [20])?
Answer: 95.5%

Question: What about the Activity (Enterobacter cloacae [21]) of the same compound?
Answer: 99.5%

Question: What about the Activity (Enterobacter cloacae [22]) of the same compound?
Answer: 0%

Question: What about the MIC50 (Proteus mirabilis [23]) of the same compound?
Answer: 0.12 µg/mL (≈ 0.313 µM)

Question: And the MIC90 (Proteus mirabilis [23])?
Answer: 0.25 µg/mL (≈ 0.652 µM)

Question: What about the MIC50 (Enterobacteriaceae [24]) of the same compound?
Answer: 0.06 µg/mL (≈ 0.156 µM)

Question: And the MIC90 (Enterobacteriaceae [24])?
Answer: 0.12 µg/mL (≈ 0.313 µM)

Question: And the Activity (Pseudomonas aeruginosa [25])?
Answer: 83.9%

Question: And the Activity (Escherichia coli [26])?
Answer: 0%

Question: And the Activity (Pseudomonas aeruginosa [27])?
Answer: 18%

Question: What about the Activity (Enterobacteriaceae [28]) of the same compound?
Answer: 99.8%

Question: What about the Activity (Proteus mirabilis [29]) of the same compound?
Answer: 0%

Question: And the Activity (Proteus mirabilis [30])?
Answer: 100%

Question: What about the MIC50 (Pseudomonas aeruginosa [31]) of the same compound?
Answer: 1 µg/mL (≈ 2.61 µM)

Question: What about the MIC90 (Pseudomonas aeruginosa [31]) of the same compound?
Answer: 32 µg/mL (≈ 83.4 µM)

Question: What about the MIC50 (Acinetobacter [32]) of the same compound?
Answer: > 32 µg/mL

Question: And the MIC90 (Acinetobacter [32])?
Answer: > 32 µg/mL

Question: And the MIC50 (Klebsiella pneumoniae [33])?
Answer: 0.06 µg/mL (≈ 0.156 µM)

Question: And the MIC90 (Klebsiella pneumoniae [33])?
Answer: 0.06 µg/mL (≈ 0.156 µM)

Question: What about the Activity (Acinetobacter [34]) of the same compound?
Answer: 0%

Question: What about the MIC50 (Serratia marcescens [35]) of the same compound?
Answer: 0.12 µg/mL (≈ 0.313 µM)

Question: And the MIC90 (Serratia marcescens [35])?
Answer: 0.25 µg/mL (≈ 0.652 µM)

Question: What about the Activity (Pseudomonas aeruginosa [36]) of the same compound?
Answer: 88.8%

Question: What about the Activity (Pseudomonas aeruginosa [37]) of the same compound?
Answer: 60.9%

Question: What about the Activity (Acinetobacter [38]) of the same compound?
Answer: 100%

Question: What about the MIC50 (Enterobacter cloacae [39]) of the same compound?
Answer: 0.06 µg/mL (≈ 0.156 µM)

Question: What about the MIC90 (Enterobacter cloacae [39]) of the same compound?
Answer: 0.25 µg/mL (≈ 0.652 µM)

Question: And the Activity (Pseudomonas aeruginosa [40])?
Answer: 3.6%

Question: And the Activity (Pseudomonas aeruginosa [41])?
Answer: 74.1%

Question: And the Activity (Klebsiella pneumoniae [42])?
Answer: 0%

Question: And the MIC50 (Staphylococcus aureus)?
Answer: 0.12 µg/mL (≈ 0.313 µM)

Question: What about the MIC50 (Staphylococcus aureus; Staphylococcus aureus, read-out: MIC50) of the same compound?
Answer: 0.06 µg/mL (≈ 0.156 µM)

Question: And the MIC50 (Acinetobacter [43])?
Answer: 1 µg/mL (≈ 2.61 µM)

Question: What about the MIC90 (Acinetobacter [43]) of the same compound?
Answer: > 32 µg/mL

Question: And the MIC50 (Staphylococcus)?
Answer: 0.12 µg/mL (≈ 0.313 µM)

Question: And the MIC50 (Staphylococcus; Staphylococcus, read-out: MIC50)?
Answer: 0.06 µg/mL (≈ 0.156 µM)

Question: What about the MIC50 (Pseudomonas aeruginosa [44]) of the same compound?
Answer: 1 µg/mL (≈ 2.61 µM)

Question: What about the MIC90 (Pseudomonas aeruginosa [44]) of the same compound?
Answer: 16 µg/mL (≈ 41.7 µM)

Question: What about the Activity (Citrobacter [45]) of the same compound?
Answer: 100%

Question: What about the MIC (Proteus mirabilis [46]) of the same compound?
Answer: 0.12 µg/mL (≈ 0.313 µM)

Question: And the MIC50 (Enterobacteriaceae [47])?
Answer: 0.06 µg/mL (≈ 0.156 µM)

Question: What about the MIC90 (Enterobacteriaceae [47]) of the same compound?
Answer: 0.12 µg/mL (≈ 0.313 µM)

Question: And the Activity (Pseudomonas aeruginosa [48])?
Answer: 42.5%

Question: And the Activity (Pseudomonas aeruginosa [49])?
Answer: 98.5%
